# Source: patent US20090162351A1, “Transdiscal administration of inhibitors of p38 MAP kinase” (DePuy Spine, Inc., priority 2007, published 2009)
# “And” between values parts separate entries of the source, which are not always exact repeats. Equal entries are not always repeated. “Also recorded” adds a separate entry of the source. Where two headings read alike, the source gives them in different places.
# What was measured:
# Format in all cases: cell-based
# [1] = test system: bovine chondrocyte pellets / ARC tissues stimulated with IL-1β; assay: Chondrocyte pellet / ARC culture model: GAG degradation assay; details: for concentration as low as which proteoglycan degradation was inhibited: chondrocyte pellets, 10 ng/ml IL-1β, five days; for effect on IL-1β-stimulated GAG degradation/release (in words): chondrocyte pellet / ARC model; for GAG Release, Pellet Assay (in words): Table 3B
# Source text: A chondrocyte pellet culture model was developed for in vitro high throughput screening of therapeutic compounds for inhibition of IL-1β-stimulated matrix degradation. The chondrocyte pellet culture model can be used to detect various potential therapeutic compounds effective in blocking different processes caused by IL-1β stimulation. For example, IL-1β stimulation results in increased glycosaminoglycan (GAG) degradation, prostaglandin E2 (PGE2) synthesis and total nitrite/nitrate production. Compounds with different mechanisms of action may inhibit the increase of one or two or all three of these parameters. For this reason, screening by, for example, measuring only GAG release would be limited to detection of a specific class of inhibitors and may not detect compounds with diversified mechanisms of function which may be involved in inhibition of the IL-1 stimulated inflammatory process. The development of the chondrocyte pellet culture assay system in a 96-well plate made possible large-scale screening of potential therapeutic compounds with different mechanisms of action.
# (§1) Calf articular cartilage was obtained from the knee joints of eight to twelve month old animals and was processed within twenty-four hours after sacrifice. After removal of muscle and ligament, the cartilage was kept moist using phosphate buffer solution (PBS) to prevent tissue dehydration, and was aseptically peeled off from subchondral bone with a scalpel, and the cartilage pieces were further minced into smaller pieces (˜0.3-0.5×˜0.2-0.5 cm cubes). […] Chondrocytes were then enzymatically isolated from the tissue by incubation for overnight at 37° C. with gentle agitation in 0.2% collagenase in Dulbecco's modified eagle media (DMEM). After removal of tissue debris by filtration through cell strainer and the residual collagenase by 3× wash in PBS, cells were finally resuspended at a density of 2.5×10^6 cells/ml in chondrocyte medium. A 1 ml aliquot of the cell suspension was dispensed into either a 15 ml Falcon centrifuge tube or a 96 deep-well plate and centrifuged at 2000×g for five minutes. The chondrocyte pellets were incubated at 37° C. in a humidified atmosphere of 5% CO2 for two to three weeks with a medium change every other day.
# (§2) As an alternative to using calf articular cartilage, a commercial Aliginate Recovered Chondrocytes (ARC) system was also used (Articular Engineering, LLC (Northbrook, Ill.)). Use of the commercial system cut down on labor and time in producing chondrocyte pellet. This system produced cartilaginous tissue in vitro using bovine chondrocytes. The first step consisted of culturing chondrocytes in alginate under conditions optimal for the formation of a cell-associated matrix (CM). The second step allowed these cells with their CM, after recovery, to rapidly form and become integrated into a solid mass of cartilage on a porous insert within two weeks.
# This tissue is rich in cells surrounded by a cell-associated matrix that is degraded rapidly when the cells are exposed to IL-1. ARC tissues in 3 mm punches at delivery were first dispensed into a 96 deep-well plate, one punch per well, for compound treatment. The subsequent procedures were the same as those used for the chondrocyte pellets.
# (§3) Chondrocyte pellets were washed once with 1 ml of Chondrocyte Stimulation Medium and equilibrated in the same medium at room temperature for fifteen to thirty minutes. Compounds were dissolved in H2O, Ethanol or dimethyl sulfoxide (DMSO) (10^−2 M) according to suppliers' instructions and further diluted with Chondrocyte Stimulation Medium to the required concentrations. DMSO concentrations in the culture media should not exceed 1%; this concentration of DMSO has no effect on cartilage proteoglycan metabolism in response to cytokines.
# The pellets were first treated with compounds at desired concentrations at 37° C. for one hour and then incubated for three to five days in the absence or presence of 10 ng/ml of IL-1β. […]
# [2] = test system: IL-1β-stimulated PGE2 synthesis in bovine chondrocyte pellets / ARC tissues; assay: Chondrocyte pellet / ARC culture model: Prostaglandin E2 assay; details: for PGE2 synthesis (in words): diacerein at 5.4 μM, rhein at 0.35 μM, 10 ng/ml IL-1β; for effect on IL-1β-stimulated PGE2 synthesis (in words): chondrocyte pellet / ARC model; for maximum inhibition of PGE2: bovine ARC tissues, IL-1β
# Source text: as §1, §2, §3
# (§4) The pellets were first treated with compounds at desired concentrations at 37° C. for one hour and then incubated for three to five days in the absence or presence of 10 ng/ml of IL-1β. At the end of the incubation, media and pellets were harvested and frozen for further analysis. Pellets were also fixed as needed in 4% (w/v) paraformaldehyde in PBS for histology analysis.
# Prostaglandin E2 (PGE2) was measured with a STAT-Prostaglandin E2 EIA ELISA kit (Cayman Biochemicals). This assay is based on the competition between PGE2 from 50 μl samples and a PGE2-alkaline phosphatase conjugate for a limited amount of PGE2 monoclonal antibody in a reaction volume of 150 μl at room temperature for one hour. The antibody-PGE2 complex bound to a goat polyclonal anti-mouse IgG that had been previously attached to the well. After washing to remove any unbound reagents, para-nitrophenyl phosphate (pNPP) was added to the well. The product of this enzymatic reaction absorbs strongly at 412 nm. Because of the large range in response to IL-1β and other cytokines, PGE2 values were converted to log scale prior to doing t-tests.
# To characterize the relative efficacies among different p38 MAP kinase inhibitors, dose-response curves were generated for both PGE2 and NO assays. […] After one hour of treatment, ARCs were stimulated with or without 7.5 ng/ml IL-1β and continued to incubate for five days before assay. The IL-1β-stimulated PGE2 synthesis or NO production was first calculated by subtraction of PGE2/NO levels in the absence of IL-1β from that in the presence of IL-1β. […]
# [3] = test system: IL-1β-stimulated NO production in bovine chondrocyte pellets / ARC tissues; assay: Chondrocyte pellet / ARC culture model: total nitrite and nitrate assay; details: for effect on IL-1β-stimulated NO production (in words): chondrocyte pellet / ARC model
# Source text: as §1, §2, §3, §4
# Nitrate/Nitrite levels were measured using the Griess reaction (Green L. C. et al., “Analysis of Nitrate, Nitrite, and [15N]nitrate in Biological Fluids,” Anal. Biochem. 126: 131-138 (1982)) with a Nitrate/Nitrite Colorimetric Assay Kit (Cayman Chemicals), the contents of which are incorporated herein by reference. The assay involved a simple two-step process. The first step involved conversion of nitrate in 50 μl of culture medium to nitrite utilizing nitrate reductase in a reaction volume of 100 μl at room temperature for two hours. The second step involved the addition of 50 μl of both Griess Reagent 1 and 2, which converted nitrite into a deep purple azo compound in ten minutes. Photometric measurement of the absorbance at 540 or 550 nm due to this azo chromophore accurately determined nitrite concentration. This assay kit cannot be used for RPMI (Roswell Park Memorial Institute) derived tissue culture medium due to interference with the colorimetric reaction.
# To characterize the relative efficacies among different p38 MAP kinase inhibitors, dose-response curves were generated for both PGE2 and NO assays. […] After one hour of treatment, ARCs were stimulated with or without 7.5 ng/ml IL-1β and continued to incubate for five days before assay. […]
# chondrocytes = test system: chondrocytes
# Method: The LDH activity was determined calorimetrically in an enzymatic test based on the conversion of lactic acid to pyruvate in the presence of chromagenic substrate tetrazolium salt INT that was reduced to formazan.
# [4] = Bos taurus, Chondrocyte, read-out: GAG Release (inhibition), Pellet Assay
# [5] = Bos taurus, Chondrocyte, 120 h, bovine ARCs, 7.5 ng/ml IL-1β, five days, sigmoidal dose-response fit, read-out: PGE2, IC50
# [6] = Bos taurus, Chondrocyte, Table 3B, read-out: PGE2 Inhibition, Pellet Assay, IC50
# [7] = Bos taurus, Chondrocyte, 120 h, bovine ARCs, 7.5 ng/ml IL-1β, five days, sigmoidal dose-response fit, read-out: NO, IC50
# [8] = chondrocyte pellet / ARC model, within the tested concentrations
# [9] = Bos taurus, Chondrocyte, at 0.5 μM
# [10] = bovine ARCs, 7.5 ng/ml IL-1β, five days, sigmoidal dose-response fit, read-out: PGE2, IC50
# [11] = bovine ARCs, 7.5 ng/ml IL-1β, five days, sigmoidal dose-response fit, read-out: NO, IC50
smiles,measurement,setting,value
"CC(=O)Oc1cccc2c1C(=O)c1c(OC(C)=O)cc(C(=O)O)cc1C2=O [Diacerein, reference compound]",concentration as low as which proteoglycan degradation was inhibited,[1],0.054 µM
same,inhibitory effect for GAG vs lower concentrations (in words),"[1]; diacerein at 5.4 μM, rhein at 3.5 μM",weaker inhibitory effect
same,PGE2 synthesis (in words),[2]; five days,no effect
same,NO production (in words),"[3]; diacerein at 5.4 μM, rhein at 0.35 μM, 10 ng/ml IL-1β, five days",significantly inhibited
same,"cytotoxicity to chondrocytes, LDH (in words)",chondrocytes,cytotoxicity at higher concentrations
"OCCC#Cc1nc(-c2ccc(F)cc2)c(-c2ccncc2)n1CCCc1ccccc1 [JNJ 3026582 (RWJ 67657), 4-[4-(4-fluorophenyl)-1-(3-phenylpropyl)-5-(4-pyridinyl)-1H-imidazol-2-yl]-3-butyn-1-ol]",inhibition at 10 µM,[1]; [4],~90%
same,effect on IL-1β-stimulated GAG degradation/release (in words),[1],significantly inhibited; also recorded: significant effect
same,IC50,[2]; [5],421 nM
same,IC50,[2]; [6],421 nM
same,effect on IL-1β-stimulated PGE2 synthesis (in words),[2],inhibited
same,IC50,[3]; [7],119 nM
same,IC50,"[3]; Bos taurus, Chondrocyte, Table 3B, read-out: NO Inhibition, Pellet Assay, IC50",119 nM
same,effect on IL-1β-stimulated NO production (in words),[3],inhibited
same,"cytotoxicity to chondrocytes, LDH (in words)",chondrocytes; [8],little cytoxicity
C[C@H](Nc1nccc(-c2c(-c3ccc(F)cc3)nc3nc(N)ccn23)n1)c1ccccc1 [JNJ 7583979 (RWJ 351958)],inhibition at 1 µM,"[1]; Bos taurus, Chondrocyte, at 1 μM, read-out: GAG Release (inhibition), Pellet Assay",10%
same,inhibition at 10 µM,[1]; [4],64%
same,effect on IL-1β-stimulated GAG degradation/release (in words),[1],significantly inhibited; also recorded: significant effect
same,inhibition at 0.5 µM,[2]; [9],100%
same,effect on IL-1β-stimulated PGE2 synthesis (in words),[2],significantly inhibited
same,inhibition at 0.5 µM,[3]; [9],50%
same,effect on IL-1β-stimulated NO production (in words),[3],significantly inhibited
same,"cytotoxicity to chondrocytes, LDH (in words)",chondrocytes; [8],little cytoxicity
CC(=O)N1CCN(c2c(-c3ccncc3)c(-c3ccc(F)cc3)c(C#N)n2C)CC1 [JNJ 17089540 (RWJ 669307)],"GAG Release, Pellet Assay (in words)",[1],No effect
same,effect on IL-1β-stimulated GAG degradation/release (in words),[1],little effect
same,IC50,"[2]; Table 3B, read-out: PGE2 Inhibition, Pellet Assay, IC50",29600 nM
same,IC50,[2]; [10],29600 nM
same,IC50,"[3]; Table 3B, read-out: NO Inhibition, Pellet Assay, IC50",4900 nM
same,IC50,[3]; [11],4920 nM
same,effect on IL-1β-stimulated NO production (in words),[3],weaker inhibitor
same,"cytotoxicity to chondrocytes, LDH (in words)",chondrocytes,little cytoxicity
"CO[C@H]1C[C@@H]2CC[C@@H](C)[C@@](O)(O2)C(=O)C(=O)N2CCCC[C@H]2C(=O)O[C@H]([C@H](C)C[C@@H]2CC[C@@H](O)[C@H](OC)C2)CC(=O)[C@H](C)/C=C(\C)[C@@H](O)[C@@H](OC)C(=O)[C@H](C)C[C@H](C)/C=C/C=C/C=C/1C [Rapamycin, reference compound]",inhibition at 10 µM,[1]; [4],50%
same,inhibition at 10 µM,"[2]; Bos taurus, Chondrocyte, at 10 μM",47%
same,inhibition at 10 µM,"[3]; Bos taurus, Chondrocyte",30%
same,"cytotoxicity to chondrocytes, LDH (in words)",chondrocytes,little toxicity
"O=C(O)c1cc(O)c2c(c1)C(=O)c1cccc(O)c1C2=O [Rhein, reference compound]",concentration as low as which proteoglycan degradation was inhibited,[1],0.035 µM
same,PGE2 synthesis (in words),[2]; five days,no effect
same,"cytotoxicity to chondrocytes, LDH (in words)",chondrocytes,higher toxicity
C[C@@H]1CN(Cc2ccc(F)cc2)[C@@H](C)CN1C(=O)c1cc2cc(C(=O)C(=O)N(C)C)[nH]c2cc1Cl [SCIO-282 (SD 282)],"GAG Release, Pellet Assay (in words)",[1],No effect
same,effect on IL-1β-stimulated GAG degradation/release (in words),[1],little effect
same,maximum inhibition of PGE2,[2],96%
same,IC50,[2]; [10],583 nM and 582 nM
same,effect on IL-1β-stimulated PGE2 synthesis (in words),[2],inhibited
same,IC50,[3]; [11],74 nM and 74.4 nM
same,effect on IL-1β-stimulated NO production (in words),[3],inhibited
same,"cytotoxicity to chondrocytes, LDH (in words)",chondrocytes; [8],little cytoxicity
C[C@@H]1CN(Cc2ccc(F)cc2)[C@@H](C)CN1C(=O)c1cc2c(C(=O)C(=O)N(C)C)cn(C)c2cc1Cl [SCIO-469 (SD 469)],"GAG Release, Pellet Assay (in words)",[1],No effect
same,effect on IL-1β-stimulated GAG degradation/release (in words),[1],no effect
same,IC50,[2]; [5],107 nM
same,IC50,[2]; [6],18 nM
same,maximum inhibition of PGE2,[2],62%
same,IC50,[2]; [10],107 nM
same,IC50,[3]; [7],18 nM
same,IC50,"[3]; Bos taurus, Chondrocyte, Table 3B, unit inferred, read-out: NO Inhibition, Pellet Assay, IC50",107 nM
same,IC50,[3]; [11],18 nM
same,increase of LDH level,"chondrocytes; bovine, 100000 nM",121%
"CC(C(=O)O)c1ccc(C(=O)c2cccs2)cc1 (stereo not shown) [Suprofen, reference compound]","GAG Release, Pellet Assay (in words)",[1],No effect
same,IC50,[2]; [6],0.812 nM
same,inhibition at 10 µM,"[3]; Bos taurus, Chondrocyte",20%
"COc1ccc(-n2nc(CCC(=O)N(C)O)cc2-c2ccc(Cl)cc2)cc1 [Tepoxalin, reference compound]",inhibition at 10 µM,[1]; [4],15%
same,IC50,[2]; [6],3280 nM
same,inhibition at 10 µM,"[3]; Bos taurus, Chondrocyte",50%
"Cc1ccc(C(=O)c2ccc(CC(=O)O)n2C)cc1 [Tolmetin, reference compound]","GAG Release, Pellet Assay (in words)",[1],No effect
same,IC50,[2]; [6],673 nM
same,"NO Inhibition, Pellet Assay (in words)",[3]; Table 3B,No effect
